Data: ChEMBL document CHEMBL4699438, “Toward the discovery and development of effective modulators of α-synuclein amyloid aggregation” (Eur J Med Chem, 2019)

Assays:
Alpha-synuclein [1] = target: T1, Alpha-synuclein (Homo sapiens, UniProt P37840); assay: Inhibition of human alpha-synuclein filament formation expressed in Escherichia coli BL21(DE3) cells incubated for 72 hrs by thioflavin S based fluorescence assay
Alpha-synuclein [2] = target: T1, Alpha-synuclein; assay: Inhibition of wild type human alpha-synuclein fibrillization expressed in Escherichia coli BL21(DE3)pLysS by thioflavin-T based fluorescence assay
Alpha-synuclein [3] = target: T1, Alpha-synuclein; assay: Inhibition of alpha-synuclein fibril formation (unknown origin) incubated for 24 hrs to 7 days by thioflavin S based fluorescence assay
Alpha-synuclein [4] = target: T1, Alpha-synuclein; assay: Inhibition of alpha-synuclein aggregation (unknown origin) incubated for 8 days by thioflavin S based fluorescence assay
Alpha-synuclein [5] = target: T1, Alpha-synuclein; assay: Inhibition of alpha-synuclein fibril formation (unknown origin) incubated for 6 days by thioflavin S based fluorescence assay
[6] = target: Amyloid-beta precursor protein (Homo sapiens, UniProt P05067); assay: Inhibition of amyloid beta (1 to 40) (unknown origin) incubated for 24 hrs to 7 days by thioflavin S based fluorescence assay
Alpha-synuclein [7] = target: T1, Alpha-synuclein; assay: Inhibition of human alpha-synuclein aggregation expressed in Escherichia coli BL21(DE3) cells assessed as percent of un-inhibition measured at 16 hrs by thioflavin T based fluorescence assay relative to control; parameters: concentration or dose not given beside the values

Amyloid-beta precursor protein, sequence (P05067 whole entry): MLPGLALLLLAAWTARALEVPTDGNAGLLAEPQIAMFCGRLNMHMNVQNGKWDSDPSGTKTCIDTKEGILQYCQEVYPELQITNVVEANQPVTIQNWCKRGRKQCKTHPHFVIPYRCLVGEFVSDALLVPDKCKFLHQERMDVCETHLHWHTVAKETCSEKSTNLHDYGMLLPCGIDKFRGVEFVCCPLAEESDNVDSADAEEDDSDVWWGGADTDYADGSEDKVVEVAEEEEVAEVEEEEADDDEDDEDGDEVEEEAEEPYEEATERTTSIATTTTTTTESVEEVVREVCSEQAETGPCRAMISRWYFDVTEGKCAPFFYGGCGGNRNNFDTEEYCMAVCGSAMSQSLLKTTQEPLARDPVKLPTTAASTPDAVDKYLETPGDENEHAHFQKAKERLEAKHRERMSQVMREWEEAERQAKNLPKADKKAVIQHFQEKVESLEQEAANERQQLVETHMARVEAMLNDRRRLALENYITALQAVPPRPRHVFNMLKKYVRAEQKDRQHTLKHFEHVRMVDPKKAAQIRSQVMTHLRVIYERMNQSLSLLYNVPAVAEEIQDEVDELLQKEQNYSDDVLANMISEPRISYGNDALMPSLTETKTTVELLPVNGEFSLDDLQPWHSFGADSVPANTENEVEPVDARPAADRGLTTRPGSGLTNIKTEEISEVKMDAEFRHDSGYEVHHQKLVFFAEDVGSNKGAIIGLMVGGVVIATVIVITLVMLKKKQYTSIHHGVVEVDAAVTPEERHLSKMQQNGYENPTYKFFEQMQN

Compound	IC50 (Alpha-synuclein [1]) [µM]	IC50 (Alpha-synuclein [3]) [µM]	further results
Oc1cc(O)c2c(c1)O[C@H](c1cc(O)c(O)c(O)c1)[C@@H](O)C2 [GALLOCATECHIN]	8.9	–	–
Cc1cc(O)c2c(=O)c3c(O)cc(O)c4c5c(O)cc(O)c6c(=O)c7c(O)cc(C)c8c1c2c(c34)c(c78)c65 [HYPERICIN]	7.5	–	–
O=c1cc(-c2ccc(O)c(O)c2)oc2cc(O)cc(O)c12 [LUTEOLIN]	28	–	–
CC1=CC(=O)c2ccccc2C1=O [MENADIONE]	–	–	IC50 (Alpha-synuclein [2]): 15 µM
CC(C)=CCC/C(C)=C/CC/C(C)=C/CC/C(C)=C/CC1=C(C)C(=O)c2ccccc2C1=O [MENATETRENONE]	–	–	IC50 (Alpha-synuclein [2]): 15 µM
O=c1c(O)c(-c2cc(O)c(O)c(O)c2)oc2cc(O)cc(O)c12 [MYRICETIN]	13.3	0.22	–
O=C1C=CC(=O)c2ccccc21 [NAPHTHOQUINONE]	–	–	IC50 (Alpha-synuclein [2]): 15 µM
CC(Cc1ccc(O)c(O)c1)C(C)Cc1ccc(O)c(O)c1 (stereo not given) [NORDIHYDROGUAIARETIC ACID]	–	0.22	IC50 (Alpha-synuclein [4]): 0.21 µM
CCCN1C[C@H](CSC)C[C@@H]2c3cccc4[nH]cc(c34)C[C@H]21 [PERGOLIDE]	–	–	IC50 (Alpha-synuclein [5]): 7.9 µM
CC1=C(C/C=C(\C)CCC[C@H](C)CCC[C@H](C)CCCC(C)C)C(=O)c2ccccc2C1=O [PHYTONADIONE]	–	–	IC50 (Alpha-synuclein [2]): 15 µM
Oc1cc(O)c2c(c1)O[C@H](c1ccc(O)c(O)c1)[C@H](O)[C@H]2c1c(O)cc(O)c2c1O[C@H](c1ccc(O)c(O)c1)[C@@H](O)C2 [PROCYANIDIN B1]	7.3	–	–
Oc1cc(O)c2c(c1)O[C@H](c1ccc(O)c(O)c1)[C@H](O)[C@H]2c1c(O)cc(O)c2c1O[C@H](c1ccc(O)c(O)c1)[C@H](O)C2 [PROCYANIDIN B2]	4.3	–	–
O=c1c(O)cccc2cc(O)c(O)c(O)c12 [PURPUROGALLIN]	12.9	–	–
O=c1c(O)c(-c2ccc(O)c(O)c2)oc2cc(O)cc(O)c12 [QUERCETIN]	20	–	–
CC1=C(/C=C/C(C)=C/C=C/C(C)=C/C=O)C(C)(C)CCC1 [RETINAL]	–	0.19	IC50 [6]: 0.18 µM
CC1=C(/C=C/C(C)=C/C=C/C(C)=C/CO)C(C)(C)CCC1 [RETINOL]	–	0.19	IC50 [6]: 0.18 µM
CO[C@H]1/C=C/O[C@@]2(C)Oc3c(C)c(O)c4c(O)c(c(/C=N/N5CCN(C)CC5)c(O)c4c3C2=O)NC(=O)/C(C)=C\C=C\[C@H](C)[C@H](O)[C@@H](C)[C@@H](O)[C@@H](C)[C@H](OC(C)=O)[C@@H]1C [RIFAMPIN]	46.2	7.1	–
O=C(/C=C/c1ccc(O)c(O)c1)O[C@H](Cc1ccc(O)c(O)c1)C(=O)O [ROSMARINIC ACID]	–	0.21	–
C#CCN(C)[C@H](C)Cc1ccccc1 [SELEGILINE]	–	–	IC50 (Alpha-synuclein [5]): 0.27 µM
C[C@]12CC[C@H]3[C@@H](CCC4=CC(=O)CC[C@@]43C)[C@@H]1CC[C@@H]2O [TESTOSTERONE]	–	–	IC50 (Alpha-synuclein [4]): 96.8 µM
CN(C)[C@@H]1C(O)=C(C(N)=O)C(=O)[C@@]2(O)C(O)=C3C(=O)c4c(O)cccc4[C@@](C)(O)[C@H]3C[C@@H]12 [TETRACYCLINE]	–	6.06	–
CC1=C(/C=C/C(C)=C/C=C/C(C)=C/C(=O)O)C(C)(C)CCC1 [TRETINOIN]	–	3	IC50 [6]: 0.18 µM
H-KKLTVWI-OH	–	–	Remaining aggregation (% of control) (Alpha-synuclein [7]): 61%
H-KTWNAAAGKWTE-OH	–	–	Remaining aggregation (% of control) (Alpha-synuclein [7]): 81%
